Data from patent US7901893B2, “NPC1L1 (NPC3) and methods of identifying ligands thereof” (Merck Sharp & Dohme Corp., priority 2004, dated 2011).
“And” between values parts separate entries of the source, which are not always exact repeats. Equal entries are not always repeated. Where two headings read alike, the source gives them in different places. One block for each compound: values may come before it.

Experiments:
[1] = target: T1, rat brush border membrane vesicles (Rattus norvegicus, UniProt Q6T3U3); assay: Binding assay with rat brush border membrane vesicles
T1 construct: from tissue; host or cells: rat (male Sprague-Dawley) small-intestinal mucosa, brush border membrane vesicles
Excerpt: Glass fiber filters (GF/C) were obtained from Whatman.
Rate constants for binding and dissociation.
Analog structures are defined in Table 12.

[2] = target: T2, rhesus brush border membrane vesicles (Macaca mulatta, UniProt A0MJA5); assay: Binding assay with rhesus brush border membrane vesicles
T2 sequence (A0MJA5 1-1332): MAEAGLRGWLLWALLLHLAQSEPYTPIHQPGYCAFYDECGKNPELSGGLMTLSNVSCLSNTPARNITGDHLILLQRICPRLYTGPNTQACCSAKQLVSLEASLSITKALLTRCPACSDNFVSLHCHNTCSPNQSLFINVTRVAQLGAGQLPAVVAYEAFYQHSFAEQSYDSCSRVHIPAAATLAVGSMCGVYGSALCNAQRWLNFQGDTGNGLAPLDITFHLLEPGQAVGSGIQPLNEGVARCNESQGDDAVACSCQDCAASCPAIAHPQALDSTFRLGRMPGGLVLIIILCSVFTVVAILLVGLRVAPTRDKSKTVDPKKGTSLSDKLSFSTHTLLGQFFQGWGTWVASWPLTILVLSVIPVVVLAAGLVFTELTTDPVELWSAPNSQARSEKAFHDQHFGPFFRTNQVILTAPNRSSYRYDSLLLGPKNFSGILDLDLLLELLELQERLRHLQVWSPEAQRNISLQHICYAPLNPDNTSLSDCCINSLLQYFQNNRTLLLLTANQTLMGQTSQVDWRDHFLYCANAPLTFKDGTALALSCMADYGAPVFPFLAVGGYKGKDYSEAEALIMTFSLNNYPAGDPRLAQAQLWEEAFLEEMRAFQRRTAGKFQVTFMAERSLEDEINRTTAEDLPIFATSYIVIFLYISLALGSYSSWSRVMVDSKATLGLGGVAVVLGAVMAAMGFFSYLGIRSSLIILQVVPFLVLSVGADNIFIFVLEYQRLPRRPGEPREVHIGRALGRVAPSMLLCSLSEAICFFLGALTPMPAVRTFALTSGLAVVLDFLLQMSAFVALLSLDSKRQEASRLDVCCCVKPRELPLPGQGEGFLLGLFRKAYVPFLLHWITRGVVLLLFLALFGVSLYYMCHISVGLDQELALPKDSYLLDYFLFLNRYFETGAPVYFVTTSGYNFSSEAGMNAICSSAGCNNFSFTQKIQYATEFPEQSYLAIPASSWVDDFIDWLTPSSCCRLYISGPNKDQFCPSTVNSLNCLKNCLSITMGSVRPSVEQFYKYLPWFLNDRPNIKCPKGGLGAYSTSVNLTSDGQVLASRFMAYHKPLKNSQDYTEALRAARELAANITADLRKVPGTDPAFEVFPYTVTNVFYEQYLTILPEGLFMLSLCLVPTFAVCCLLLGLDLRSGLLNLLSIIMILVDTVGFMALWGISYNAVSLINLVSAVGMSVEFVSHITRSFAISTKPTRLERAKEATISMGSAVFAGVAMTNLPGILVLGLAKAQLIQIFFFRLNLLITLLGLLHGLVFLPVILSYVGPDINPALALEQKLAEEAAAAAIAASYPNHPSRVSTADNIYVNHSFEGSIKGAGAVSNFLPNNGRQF
Experimental: The intestines from freshly sacrificed animals were cut into segments, perfused with ice-cold saline buffer (Buffer A: 26 mM NaHCO3, 0.96 mM NaH2PO4, 5 mM HEPES, 5.5 mM glucose, 117 mM NaCl, 5.4 mM KCl, pH=7.4), placed on cold glass plates, opened longitudinally, and the mucosa scraped with glass microscope slips. This mucosa could be used fresh or frozen with identical results. To prepare the membranes, the mucosal scrapings were resuspended in 20 volumes of cold buffer consisting of 300 mM D-mannitol, 5 mM EGTA, 12 mM Tris, pH 7.4 with HCl, and containing 0.1 mM PMSF and a 1% dilution of a protease inhibitor cocktail (set 1, Calbiochem). They were homogenized using a Polytron at medium speed on ice until inspection with a microscope indicated complete cell lysis. Then, solid MgCl2 was added slowly with stirring to a final concentration of 10 mM, and the solution was kept stirring on ice for 15 min. Cellular debris was removed by centrifugation for 15 min at 3,000 g, and the membranes were recovered by centrifugation for 60 min at 48,000 g. The membranes were further rinsed by re-suspension in a buffer containing 50 mM D-mannitol, 5 mM EGTA, and 2 mM Tris at pH 7.40, and centrifugation for 60 min at 48,000 g. The final pellet was resuspended in 120 mM NaCl and 20 mM Tris at pH 7.40 to a concentration of ˜10-20 mg protein/ml, aliquoted, frozen in liquid nitrogen, and stored at −80 C. The activity was stable indefinitely and could be freeze-thawed with minimal loss of activity.
Binding assay. Assays were conducted in 12×75 mm glass test tubes and total volume 20-100 ul. In general, frozen membranes were diluted in buffer A or buffer A containing 0.03% taurocholate and 0.05% digitonin to a final concentration of 0.02 to 5 mg/ml. […] Competing ligands were likewise added as DMSO solutions to give a total 2-10% organic solvent content. […] At least 2 components of buffer A, the bicarbonate and phosphate salts, were later found to be inconsequential and were routinely omitted.
Bound ligand was quantified by single-tube vacuum filtration using GF/C glass fiber filters. […] Filtration was accomplished by adding 2.5 ml of ice cold buffer (120 mM NaCl, 0.1% sodium cholate, and 20 mM MES at pH 6.70) to the assay tube, pouring the mixture through the filter, and then rinsing the tube and filter twice more with another 2×2.5 ml buffer. The filters were counted in 7 ml vials using Packard DM liquid scintillation fluid.
Data analysis. Data from saturation experiments were subjected to a Scatchard analysis, and linear regression was performed to yield the equilibrium dissociation constant (Kd) and maximum receptor concentration (Bmax). […] Data from competition experiments were analyzed and IC50 values determined from Hill plots of the binding data.

[3] = target: rat NPC1L1 (Rattus norvegicus, UniProt Q6T3U3); assay: ^35S-2 competition binding, rat NPC1L1 transfected CHO cells; parameters: expressed in transfected cells; pCDNA3); conditions: 5 nM ^35S-2, 2 hours at 37° C.; read-out: Recombinant rat NPC1L1 Ki
Experimental: Rat NPC1L1 transfected CHO cells (˜500,000 cells/assay) were incubated with 5 nM ^35S-2 (˜1 million dpm/assay) for 2 hours at 37° C. in the absence or presence of increasing concentrations of EZE-glucuronide (compound 1), compounds 2, 3, 5, 6, or 8. Compound 8 is an analog of compound 2 wherein the hydroxyl group in the 3-hydroxylpropyl moiety of 2 is replaced with an oxo group.

[4] = 50 nM ^3H-EZE-glucuronide, 150 μg protein/assay, read-out: inhibition constant Ki, Rat
[5] = native rat intestinal brush border membranes, read-out: Rat BBMV Ki
[6] = 0.03% sodium taurocholate and 0.05% digitonin, 1.25 mg protein/ml, 100 nM 1, read-out: Rat BBM Ki
[7] = rat brush border membrane vesicles, read-out: RAT IC50 (nM), inhibition of ^3H-EZE-gluc binding
[8] = Monkey BBM Ki (nM), 0.03% sodium taurocholate and 0.05% digitonin, 1.25 mg protein/ml, 20 nM 1

Ki [1, 4]: 15 nM
Ki [1, 5]: 15 nM
potency relative to ezetimibe glucuronide ([1]; rat enterocyte brush border membrane preparations): 35 fold
potency relative to ezetimibe glucuronide ([2]; rhesus membrane preparations): equipotent
Ki [3]: 12 nM
Compound: CS(=O)(=O)NCC#Cc1ccc(N2C(=O)[C@H](CC[C@H](O)c3ccc(F)cc3)[C@H]2c2ccc(O[C@@H]3O[C@H](C(=O)O)[C@@H](O)[C@H](O)[C@H]3O)cc2)cc1 [Compound 2, 4-[(2S,3R)-3-[(3S)-3 (4-fluorophenyl)-3-hydroxypropyl]-1-(4-{3-[(methylsulfonyl)amino]prop-1-yn-1-yl}phenyl)-4-oxoazetidin-2-yl]phenyl β-D-glucopyranosiduronic acid]

Ki [1, 6]: 33000 nM
Ki [1, 5]: 70000 nM
IC50 [1, 7]: 70000 nM
Ki [2]: 3300 nM
Ki [3]: 84500 nM
Compound: O=C(CC[C@H]1C(=O)N(c2ccc(F)cc2)[C@@H]1c1ccc(O[C@@H]2O[C@H](C(=O)O)[C@@H](O)[C@H](O)[C@H]2O)cc1)c1ccc(F)cc1 [Compound 6]

Ki [1, 6]: 2800 nM
Ki [1, 5]: 3900 nM
IC50 [1, 7]: 3900 nM
Ki [2, 8]: 120 nM
Ki [3]: 5800 nM
Compound: O=C(O)[C@H]1O[C@@H](Oc2ccc([C@@H]3[C@@H](CC[C@@H](O)c4ccc(F)cc4)C(=O)N3c3ccc(F)cc3)cc2)[C@H](O)[C@@H](O)[C@@H]1O [Compound 5]

Kd ([1]; Table 11, rat, absence of detergents, read-out: KD): 542 nM
Kd ([2]; KD (nM), Table 11, monkey, absence of detergents): 41 nM
Compound: O=C1[C@H](CC[C@H](O)c2ccc(F)cc2)[C@@H](c2ccc(O)cc2)N1c1ccc(F)cc1 [ezetimibe]

Compound: O=C(O)[C@H]1O[C@@H](Oc2ccc([C@@H]3[C@@H](CC[C@H](O)c4ccc(F)cc4)C(=O)N3c3ccc(F)cc3)cc2)[C@H](O)[C@@H](O)[C@@H]1O [Compound 1, Ezetimibe glucuronide]
rate constant for association kon ([1]; 25 nM 1, rat membranes, 25° C.): 5,540 M^−1 s^−1
kobs ([1]; 25 nM of 1 and 3 mg/ml protein at 25° C.): 0.004 s⁻¹
Ki [1, 4]: 530 nM
Kd ([1]; 1.5 mg/ml protein, 50 nM 1, 1 hour, read-out: KD at equilibrium by competition of unlabeled compound against 1): 600 nM
Ki [1, 6]: 390 nM
Bmax ([1]; ^3H-EZE-glucuronide, rat BBMV): 20.7 pmol/mg protein
Kd ([1]; ^3H-ezetimibe glucuronide, rat membranes, no detergent, read-out: KD (equilibrium saturation binding, Scatchard)): 542 nM and 540 nM
Ki [1, 5]: 600 nM
IC50 [1, 7]: 530 nM
rate constant for dissociation koff ([1]; rat membranes, dissociation initiated with 100 μM unlabeled ezetimibe glucuronide): 0.0024 s⁻¹
Kd ([1]; rat membranes, read-out: Kd predicted from rate constants (Kd=koff/kon)): 440 nM
IC50 ([1]; rat, read-out: in vitro binding affinity (IC50)): 542 nM
residence time ([1]; read-out: half-life of dissociation): 4.7 min
kon ([1]; read-out: rate constant for association kon, 25 nM 1, rat membranes, 25° C.): 5500 M⁻¹ s⁻¹
kon ([1]; read-out: rate constant for association kon, rat brush border membranes): 5540 M⁻¹ s⁻¹
koff ([1]; read-out: rate constant for dissociation koff): 0.0024 s⁻¹
IC50 [2]: 41 nM
Kd ([2]; KD at equilibrium by competition of unlabeled compound against 1, 0.5-1.25 mg/ml protein, 22-50 nM 1, more than 3 hours): 38.6 nM
Kd ([2]; Kd (equilibrium saturation binding, Scatchard), ^3H-ezetimibe glucuronide, rhesus membranes, no detergent): 41 nM
Kd ([2]; Kd predicted from rate constants (Kd=koff/kon), rhesus membranes): 32 nM
Ki [2, 8]: 15 nM
residence time ([2]; read-out: half-life for dissociation of the complex, rhesus/monkey complex): ~90 min
kon ([2]; read-out: rate constant for association kon): 3900 M⁻¹ s⁻¹
koff ([2]; read-out: rate constant for dissociation koff, rhesus membranes): 0.000123 s⁻¹
concentration of binding site ([2]; rhesus membranes): 5.5 pmol/mg membrane protein
rate constant for dissociation koff ([2]; rhesus membranes, listed as [^3H]ezetimibe glucuronide): 0.00012 s⁻¹
Ki [3]: 790 nM

Ki [1, 6]: 130000 nM
activity in vitro ([1]; in all species, Ki>100×KD for ezetimibe glucuronide): completely inactive
IC50 [1, 7]: > 100000 nM
Kd ([1]; rat membrane binding assay, read-out: Kd for the rat target): > 100000 nM
Ki [2, 8]: 22000 nM
Compound: O=C(O)C1OC(Oc2ccc(C3C(CCC(O)c4ccc(F)cc4)C(=O)N3c3ccc(F)cc3)cc2)C(O)C(O)C1O (single isomer, unassigned) [Compound 4]

Ki [1, 6]: 1600 nM
Ki [1, 5]: 2300 nM
IC50 [1, 7]: 2300 nM
Ki [2]: 150 nM
Ki [3]: 2400 nM
Compound: O=C(O)[C@H]1O[C@@H](Oc2ccc([C@@H]3[C@@H](CCCc4ccc(F)cc4)C(=O)N3c3ccc(F)cc3)cc2)[C@H](O)[C@@H](O)[C@@H]1O [Compound 3]
